Test results: paper PMC8537277 (Pharmaceuticals, 2021)
Values joined by “and” are separate entries in the source; they are usually repeats but may differ in a detail not shown here. Equal entries are not always repeated. Where two headings read alike, the source gives them in different places. Where a SMILES comes first, the peptide text is derived from it.

Legend:
Cytotoxicity assay = assay type: cell-based, canine; details: dog, MDCK cells
Protocol: This procedure was performed as reported elsewhere. Briefly, two-fold serial dilutions of each peptide in culture medium were incubated at 37 °C with confluent MDCK cells grown in 96-well tissue culture microplates (Nalge Nunc Europe Ltd., Neerijse, Belgium). After 24 h, the following parameters were evaluated: cell morphology, which was examined by light microscopy; cell viability, which was determined by neutral red staining as already described by us; and cell proliferation, which was evaluated quantitatively by microscopic counts after dispersion into individual cells with trypsin.

[1] = tested on: A/Roma-ISS/02/08 H1N1 oseltamivir-sensitive virus; details: reference peptides; ref Scala et al. (2017) [14]; read-out: HI Titer (IC50) A/Roma-ISS/02/08 H1N1; cited from earlier work
A/Parma/05/06 H3N2 [2] = tested on: A/Parma/05/06 H3N2; parameters: method as in Scala et al. (2017) [14]; details: reference peptides; ref Scala et al. (2017) [14]; read-out: HI Titer (IC50) A/Parma/05/06 H3N2; cited from earlier work
A/Roma-ISS/02/08 H1N1 = details: MDCK cells; ref Scala et al. (2017) [14]; cited from earlier work
A/Parma/05/06 H3N2 [3] = details: MDCK cells; ref Scala et al. (2017) [14]; cited from earlier work
A/Parma/24/09 H1N1 = details: MDCK cells; ref Scala et al. (2017) [14]; cited from earlier work
[4] = target: HA (H1N1 hemagglutinin, Cat No.: Z03181, GenScript); details: read-out: MST KD
[5] = target: HA (H1N1 hemagglutinin, Cat No: Z03181, GenScript); details: read-out: SPR KD
[6] = tested on: A/Roma-ISS/02/08 H1N1 oseltamivir-sensitive virus; details: A/Roma-ISS/02/08 oseltamivir-sensitive virus, 1 h
A/Parma/05/06 H3N2 [7] = details: A/Parma/05/06, 1 h

Compound	Kd [4]	Kd [5] [nM]	other results
CC(=O)N[C@@H](CO)C(=O)N[C@@H](CCCCN)C(=O)N[C@@H](Cc1c[nH]cn1)C(=O)N[C@@H](CO)C(N)=O [Peptide 1, Ac-SKHS-NH2] (Ac-SKHS-NH2)			CC50 at 24 h (Cytotoxicity assay): > 25000 nM; IC50 [1]: 0.1 nM; IC50 (A/Parma/05/06 H3N2 [2]): 12 nM; EC50 (A/Roma-ISS/02/08 H1N1): 0.003 nM; EC50 (A/Parma/05/06 H3N2 [3]): 0.005 nM
CC(=O)N[C@@H](CO)C(=O)N[C@@H](CC(C)C)C(=O)N[C@@H](CC(=O)O)C(=O)N[C@@H](CS)C(N)=O [Peptide 2, Ac-SLDC-NH2] (Ac-SLDC-NH2)			IC50 (A/Parma/05/06 H3N2 [2]): 1.5 nM; EC50 (A/Parma/24/09 H1N1): 0.0046 nM; EC50 (A/Parma/05/06 H3N2 [3]): 0.0043 nM
CC(=O)N[C@@H](C)C(=O)N[C@@H](CCCCN)C(=O)N[C@@H](Cc1c[nH]cn1)C(=O)N[C@@H](CO)C(N)=O [Peptide 3] (Ac-AKHS-NH2)	3120 ± 110 nM	2700 ± 40	IC50 [6]: 0.6 nM; IC50 (A/Parma/05/06 H3N2 [7]): 12 nM
CC(=O)N[C@@H](CO)C(=O)N[C@@H](C)C(=O)N[C@@H](Cc1c[nH]cn1)C(=O)N[C@@H](CO)C(N)=O [Peptide 4, Ac-SAHS-NH2] (Ac-SAHS-NH2)	8.22 nM and 8.2 nM	3.57 ± 0.12	CC50 at 24 h (Cytotoxicity assay): > 25000 nM
CC(=O)N[C@@H](CO)C(=O)N[C@@H](CCCCN)C(=O)N[C@@H](C)C(=O)N[C@@H](CO)C(N)=O [Peptide 5] (Ac-SKAS-NH2)	7010 ± 90 nM	1030 ± 10	
CC(=O)N[C@@H](CO)C(=O)N[C@@H](CCCCN)C(=O)N[C@@H](Cc1c[nH]cn1)C(=O)N[C@@H](C)C(N)=O [Peptide 6] (Ac-SKHA-NH2)	11400 ± 170 nM	6750 ± 810	
CC(=O)N[C@@H](C)C(=O)N[C@@H](CC(C)C)C(=O)N[C@@H](CC(=O)O)C(=O)N[C@@H](CS)C(N)=O [Peptide 7] (Ac-ALDC-NH2)	21200 ± 410 nM	27.7 ± 1.7	
CC(=O)N[C@@H](CO)C(=O)N[C@@H](C)C(=O)N[C@@H](CC(=O)O)C(=O)N[C@@H](CS)C(N)=O [Peptide 8] (Ac-SADC-NH2)	6380 ± 210 nM	2190 ± 510	
CC(=O)N[C@@H](CO)C(=O)N[C@@H](CC(C)C)C(=O)N[C@@H](C)C(=O)N[C@@H](CS)C(N)=O [Peptide 9] (Ac-SLAC-NH2)	5.8 ± 0.3 nM	2570 ± 340	
CC(=O)N[C@@H](CO)C(=O)N[C@@H](CC(C)C)C(=O)N[C@@H](CC(=O)O)C(=O)N[C@@H](C)C(N)=O [Peptide 10] (Ac-SLDA-NH2)	2690 ± 90 nM	343 ± 19	IC50 (A/Parma/05/06 H3N2 [7]): 0.0021 nM
